Here are results for 1 compound from patent US11666559B2, “Spiro-lactam compounds, process and uses thereof” (UNIVERSIDADE DE COIMBRA, priority 2017, dated 2023).

Molecules are shown by their SMILES. Entries after “also recorded” stand apart in the source; their conditions may differ.

The nature of the data set: Acute toxicity assay in Wistar rats. The method, then:
Wistar rats (n=5) were inoculated IP with different doses of BSS-593 and effects on liver, renal and lipid homeostasis were assessed by dosing different biochemical parameters 48 h after inoculation. ALT, AST and LDH were determined as markers of liver function and serum level of creatinine were determined as marker of renal function. Serum levels of total cholesterol, low-density cholesterol (LDL), high-density cholesterol (HDL) and triglycerides were measured to evaluate the effect of the drugs on lipid homeostasis. Results were expressed as the means with their standard errors and were compared using a one-factorial ANOVA test, followed by a Bonferroni's multi-comparison post hoc test.
In an embodiment, the acute toxicity assay of spiro-β-lactam BSS-593 was carried out. […] Control animals were administered with sterile saline (1 mL/kg; n=4). […] After blood collection animals were necropsied to identify macroscopic signs of organ injury.
In an embodiment, an acute toxicity assay was carried out. Female Wistar (220-250 g) rats were randomly divided in 4 groups. […] A fourth group of control animals was administered with sterile saline (B. Braun, Portugal) (1 mL/kg; n=4). Animals received the test drug via the intraperitoneal route and were monitored regularly for visible stress or toxicity signs such as death. All rats were anesthetized with sodium pentobarbital (Eutasil, 60 mg/kg i.p; Sanofi VeterinAria, Alges, Portugal) prior to intracardiac puncture for blood collection. […] Blood was collected into a serum SST gel and clot activator tube (Becton Dickinson, Le Pont de Claix, France) and was centrifuged (1000×g for 10 min at room temperature) to separate serum. Serum was analyzed within 24 h on a laboratory bench Clinical Chemistry Analyser c111 (Roche Diagnostics, Lda). Uver injury was assessed by measuring the rise in the serum levels of alanine aminotransferase (ALT, a specific marker for hepatic parenchymal injury), aspartate aminotransferase (AST, a nonspecific marker for hepatic injury) and lactate dehydrogenase (LDH, a marker of nonspecific cellular injury). Serum levels of creatinine was determined as marker of renal injury. Serum levels of total cholesterol, low-density cholesterol (LDL), high-density cholesterol (HDL) and triglycerides were also measured to evaluate the effect of the drugs on lipid homeostasis. Results were expressed as the means with their standard errors and were compared using a one-factorial ANOVA test, followed by a Bonferroni's multi-comparison post hoc test. A P value <0.05 was considered to be statistically significant.

Where [1] appears, read: single intraperitoneal dose 0.1, 1 or 10 mg/kg, 48 h.

For `COC(=O)C1=C[C@@]2(N=N1)C(=O)N1[C@@H](C(=O)O)C(C)(C)S[C@@H]12` [BSS-593, (2,3′R,5R)-5′-(methoxycarbonyl)-3,3-dimethyl-7-oxo-4-thia-1-azaspiro[bicyclo[3.2.0]heptane-6,3′-pyrazole]-2-carboxylic acid], the “time to anaesthesia (sodium pentobarbital) between treated and control animals” value (intraperitoneal 0.1, 1 or 10 mg/kg, reflects apparent CNS effects) is given as “no significant differences”. In addition, under setting [1], the “abnormal behavior or signs of toxicity” value is reported as “No abnormal behavior or signs of abnormal toxicity were noticed”; the “biochemical markers of liver function, kidney function and general cell injury (ALT, AST, creatinine, LDH in the blood) vs control animals” value was “no significant differences; also recorded: does not induce liver and renal injury”; the “blood lipid profiles (cholesterol, LDL, HDL and TG)” value is listed as “no changes; also recorded: does not alter lipid metabolism”. Besides, the “macroscopic signs of organ injury at necropsy” value (single intraperitoneal dose 0.1, 1 or 10 mg/kg, after blood collection) was “No significant differences”. Also, under “single intraperitoneal dose 0.1, 1 or 10 mg/kg, test period of 48 h”, the animal survival rate amounted to 100%.
